Test results taken from patent US8048908B2, “11β-hydroxysteroid dehydrogenase type 1 active compounds” (High Point Pharmaceuticals, LLC, priority 2006, dated 2011).
pIC50: −log10 of the molar value.

Experiments:
11βHSD1 = target: T1, 11βHSD1 (Homo sapiens, UniProt P28845); details: lean healthy volunteers and people with type 2 diabetes; cited from earlier work
T1 construct: host or cells: human subjects (in vivo)

h-11βHSD1 = target: T2, h-11βHSD1 (Homo sapiens, UniProt P28845); experiment: 11βHSD1 Enzyme Assay (scintillation proximity assay); type: biochemical; details: yeast extract expressing h-11βHSD1, 120 nM 3H-cortisone, 4 mM β-NADPH, 60 min at 30° C.
T2 construct: made in house
T2 sequence (P28845 whole entry): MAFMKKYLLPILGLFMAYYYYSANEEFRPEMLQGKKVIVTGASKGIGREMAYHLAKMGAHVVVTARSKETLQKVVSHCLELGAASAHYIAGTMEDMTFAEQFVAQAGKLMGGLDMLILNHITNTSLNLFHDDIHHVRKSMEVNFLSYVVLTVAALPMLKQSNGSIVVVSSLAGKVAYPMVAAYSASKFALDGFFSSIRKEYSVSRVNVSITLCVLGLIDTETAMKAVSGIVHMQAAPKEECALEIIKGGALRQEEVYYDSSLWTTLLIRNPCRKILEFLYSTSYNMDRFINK
Experimental: ^3H-cortisone and anti-rabbit Ig coated scintillation proximity assay (SPA) beads were purchased from Amersham Pharmacia Biotech, —NADPH was from Sigma and rabbit anti-cortisol antibodies were from Fitzgerald. An extract of yeast transformed with h-11βHSD1 (Hult et al., FEBS Lett., 441, 25 (1998)) was used as the source of enzyme. The test compounds were dissolved in DMSO (10 mM). All dilutions were performed in a buffer containing 50 mM TRIS-HCl (Sigma Chemical Co), 4 mM EDTA (Sigma Chemical Co), 0.1% BSA (Sigma Chemical Co), 0.01% Tween-20 (Sigma Chemical Co) and 0.005% bacitracin (Novo Nordisk A/S), pH=7.4. Optiplate 96 wells plates were supplied by Packard. The amount of ^3H-cortisol bound to the SPA beads was measured on Top-Count NXT, Packard.
h-11βHSD1, 120 nM ^3H-cortisone, 4 mM β-NADPH, antibody (1:200), serial dilutions of test compound and SPA particles (2 mg/well) were added to the wells. The reaction was initiated by mixing the different components and was allowed to proceed under shaking for 60 min at 30° C. The reaction was stopped be the addition of 10 fold excess of a stopping buffer containing 500 μM carbenoxolone and 1 μM cortisone. Data was analysed using GraphPad Prism software.

T1 sequence (P28845 whole entry): as above

Structure (SMILES) | insulin sensitivity (11βHSD1) | pIC50 (h-11βHSD1)
CC1(C)[C@@H](OC(=O)CCC(=O)O)CC[C@]2(C)[C@H]3C(=O)C=C4[C@@H]5C[C@@](C)(C(=O)O)CC[C@]5(C)CC[C@@]4(C)[C@]3(C)CC[C@@H]12 [carbenoxolone] | improves insulin sensitivity | 
CN(C1CCN(c2ccc(C(=O)N3CC4CCC(CC4)C3)cc2)C1)S(=O)(=O)Cc1ccccc1 (stereo not shown) [Example 1-33, N-{1-[4-(3-Aza-bicyclo[3.2.2]-nonane-3-carbonyl)-phenyl]-pyrrolidin-3-yl}-N-methyl-phenyl-methanesulfonamide] |  | 7.37
CC1(C)CC2CC(C)(CN2C(=O)c2ccc(N3CCC(C(=O)NC4CCC(O)CC4)C3)cc2)C1 (stereo not shown) [Example 1-7, 1-[4-(1,3,3-Trimethyl-6-aza-bicyclo[3.2.1]octane-6-carbonyl)-phenyl]-pyrrolidine-3-carboxylic acid (4-hydroxy-cyclohexyl)-amide] |  | 6.90
CN(C(=O)C1CC1)C1CCN(c2ccc(C(=O)N3CC4CCC(CC4)C3)cc2)C1 (stereo not shown) [Example 1-31, Cyclopropanecarboxylic acid {1-[4-(3-aza-bicyclo[3.2.2]-nonane-3-carbonyl)-phenyl]-pyrrolidin-3-yl}-methyl-amide] |  | 6.89
